From the supplement of paper PMC10307832

What was measured:
Test in all cases: relative viability (nuclei count vs DMSO), 5 days (fraction); higher = more cells survive
[1] = compound: C(C(=O)C(=O)O)Br [Bromopyruvate] + CC1(C)CCC(c2ccc(Cl)cc2)=C(CN2CCN(c3ccc(C(=O)NS(=O)(=O)c4ccc(N[C@H](CCN5CCOCC5)CSc5ccccc5)c(S(=O)(=O)C(F)(F)F)c4)cc3)CC2)C1 [Navitoclax] (partner 0.5 µM)
In short: (§1)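 Dosing by pin tool came one day after lung cancer cell lines were seeded in 1536-well plates, using either one drug or a fixed anchor-drug dose plus five library-drug doses (not always all listed) in √10 steps. After 5 days, nuclei were counted on 4× images. Relative viability is treated-well nuclei count divided by vehicle-well nuclei count, and values are medians of duplicate plates.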

[2] = compound: C(C(=O)C(=O)O)Br [Bromopyruvate] + COc1cc2c(Oc3ccc(NC(=O)C4(C(=O)Nc5ccc(F)cc5)CC4)cc3F)ccnc2cc1OCCCN1CCOCC1 [Foretinib] (partner 0.25 µM)
In short: as §1

Bicalutamide = compound: CC(O)(CS(=O)(=O)c1ccc(F)cc1)C(=O)Nc1ccc(C#N)c(C(F)(F)F)c1 [Bicalutamide]
In short: (§2)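 Nuclei counted with MetaXpress define viability as the ratio of treated to vehicle wells, given as a median across plates. The lung cancer cell lines were in 1536-well plates, pinned with five √10-spaced library-drug doses and imaged at 4× after 5 days and Hoechst staining. Plates passed with control CV below 25% and at least one doubling.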

Bromopyruvate = compound: C(C(=O)C(=O)O)Br [Bromopyruvate]
In short: as §2

Cell Line | relative viability ([1]; first compound 1 µM) | relative viability ([1]; first compound 3.162 µM) | relative viability ([1]; first compound 10 µM) | relative viability ([1]; first compound 31.62 µM) | relative viability ([1]; first compound 100 µM) | relative viability ([2]; first compound 1 µM) | relative viability ([2]; first compound 3.162 µM) | relative viability ([2]; first compound 10 µM) | relative viability ([2]; first compound 31.62 µM) | relative viability ([2]; first compound 100 µM) | relative viability (Bicalutamide; 0.08 µM) | relative viability (Bicalutamide; 0.253 µM) | relative viability (Bicalutamide; 0.8 µM) | relative viability (Bicalutamide; 2.53 µM) | relative viability (Bromopyruvate; 1 µM) | relative viability (Bromopyruvate; 3.162 µM) | relative viability (Bromopyruvate; 10 µM) | relative viability (Bromopyruvate; 31.62 µM) | relative viability (Bromopyruvate; 100 µM)
NCI-H1915 | 0.827 | 0.765 | 0.792 | 0.824 | 0.801 | 1.03 | 1.08 | 1.09 | 1 | 1.12 | 1.01 | 0.922 | 1.14 | 0.964 | 1.02 | 0.984 | 1 | 1.01 | 0.997
NCI-H647 | 1.17 | 1.3 | 1.49 | 1.18 | 1.19 | 1.26 | 1.2 | 1.31 | 1.21 | 1.06 | 0.987 | 0.886 | 1.37 | 0.893 | 1 | 1.08 | 1.17 | 1.03 | 0.951
NCI-H441 | 0.539 | 0.441 | 0.557 | 0.439 | 0.493 | 1.08 | 1.02 | 0.986 | 0.984 | 0.947 | 1.13 | 0.803 | 1.45 | 0.976 | 0.949 | 1.18 | 1.17 | 0.914 | 0.679
NCI-H1299 | 1.04 | 1.07 | 1.03 | 1.03 | 1.02 | 1.16 | 1.13 | 1.16 | 1.14 | 1.09 | 1.01 | 1.04 | 1.05 | 1 | 1.01 | 1 | 1.04 | 0.968 | 0.983
NCI-H23 | 0.855 | 0.807 | 0.983 | 0.768 | 0.77 | 0.895 | 0.851 | 0.983 | 0.885 | 0.296 | 1.02 | 0.9 | 1.08 | 0.812 | 1.01 | 1.19 | 0.979 | 0.909 | 0.931
IA-LM | 0.798 | 0.723 | 0.654 | 0.763 | 0.818 | 1.12 | 1.19 | 1.07 | 1.17 | 0.914 | 1.02 | 0.936 | 1.18 | 0.95 | 1.03 | 0.96 | 0.983 | 0.884 | 0.924
SK-MES-1 | 1.1 | 1.25 | 1.17 | 1.29 | 1.26 | 0.964 | 0.962 | 0.938 | 0.75 | 1.17 | 1.02 | 0.961 | 1.09 | 0.971 | 0.99 | 1.07 | 1.12 | 0.958 | 1.05
NCI-H2170 | 0.549 | 0.533 | 0.577 | 0.541 | 0.57 | 0.961 | 1.01 | 1.07 | 0.995 | 0.966 | 0.916 | 0.931 | 1.1 | 0.987 | 0.938 | 0.947 | 0.95 | 0.969 | 1.01
NCI-H2087 | 0.974 | 1.08 | 0.987 | 0.966 | 1.02 | 1.13 | 1.17 | 0.97 | 1.12 | 0.595 | 1.09 | 1.06 | 1.25 | 1.07 | 0.947 | 1.07 | 1.09 | 1.04 | 0.974
NCI-H838 | 1.11 | 1.16 | 1.3 | 1.17 | 1.28 | 1.03 | 1.08 | 1.07 | 1.05 | 1.03 | 0.95 | 0.908 | 1.05 | 0.76 | 0.994 | 0.972 | 1.05 | 0.995 | 0.894
NCI-H460 | 1.11 | 1.17 | 1.58 | 1.1 | 1.16 | 0.928 | 1.01 | 1.15 | 1.02 | 1 | 0.974 | 0.952 | 1.07 | 0.988 | 0.99 | 0.972 | 1.13 | 1 | 1.01
LOU-NH91 | 0.835 | 0.611 | 0.759 | 0.84 | 0.783 | 0.945 | 0.903 | 0.999 | 0.92 | 0.984 | 1.09 | 0.765 | 1.05 | 1.04 | 1.09 | 1.01 | 0.973 | 0.984 | 1.01
NCI-H322M | 1.23 | 1.2 | 1.22 | 1.16 | 1.3 | 0.978 | 0.964 | 1.02 | 0.99 | 1.05 | 0.969 | 0.941 | 1.05 | 1.06 | 0.93 | 0.956 | 0.865 | 0.94 | 1.04
